Key:
Experiment in all cases: relative viability (nuclei count vs DMSO), 5 days (fraction); higher = more cells survive
[1] = compound: CS(=O)(=O)c1ccc(-c2cnc(N)c(C(=O)Nc3ccccc3)n2)cc1 [VE-821] + CC(C)C[C@H](NC(=O)[C@H](Cc1ccccc1)NC(=O)c1cnccn1)B(O)O [Bortezomib] (partner 0.002 µM)
Summary of the method: (§1)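 Dosing by pin tool came one day after lung cancer cell lines were seeded in 1536-well plates, using either one drug or a fixed anchor-drug dose plus five library-drug doses (not always all listed) in √10 steps. After 5 days, nuclei were counted on 4× images. Relative viability is treated-well nuclei count divided by vehicle-well nuclei count, and values are medians of duplicate plates.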

[2] = compound: CS(=O)(=O)c1ccc(-c2cnc(N)c(C(=O)Nc3ccccc3)n2)cc1 [VE-821] + C[C@@H](Oc1cc(-c2cnn(C3CCNCC3)c2)cnc1N)c1c(Cl)ccc(F)c1Cl [Crizotinib] (partner 1 µM)
Summary of the method: as §1

[3] = compound: CS(=O)(=O)c1ccc(C(=O)Nc2ccc(Cl)c(-c3ccccn3)c2)c(Cl)c1 [Vismodegib] + Nc1ncn([C@H]2C[C@H](O)[C@@H](CO)O2)c(=O)n1 [Decitabine] (partner 2 µM)
Summary of the method: as §1

[4] = compound: N#CC[C@H](C1CCCC1)n1cc(-c2ncnc3[nH]ccc23)cn1 [Ruxolitinib] + CCNC(=O)c1noc(-c2cc(C(C)C)c(O)cc2O)c1-c1ccc(CN2CCOCC2)cc1 [Luminespib] (partner 0.01 µM)
Summary of the method: as §1

| Cell Line | relative viability ([1]; first compound 0.08 µM) | relative viability ([1]; first compound 0.253 µM) | relative viability ([1]; first compound 0.8 µM) | relative viability ([1]; first compound 2.53 µM) | relative viability ([1]; first compound 8 µM) | relative viability ([2]; first compound 0.08 µM) | relative viability ([2]; first compound 0.253 µM) | relative viability ([2]; first compound 0.8 µM) | relative viability ([2]; first compound 2.53 µM) | relative viability ([2]; first compound 8 µM) | relative viability ([3]; first compound 0.08 µM) | relative viability ([3]; first compound 0.253 µM) | relative viability ([3]; first compound 0.8 µM) | relative viability ([3]; first compound 2.53 µM) | relative viability ([3]; first compound 8 µM) | relative viability ([4]; first compound 0.08 µM) | relative viability ([4]; first compound 0.253 µM) | relative viability ([4]; first compound 0.8 µM) | relative viability ([4]; first compound 2.53 µM) | relative viability ([4]; first compound 8 µM) |
| --- | --- | --- | --- | --- | --- | --- | --- | --- | --- | --- | --- | --- | --- | --- | --- | --- | --- | --- | --- | --- |
| HCC-15 | 1.22 | 1.02 | 1.02 | 1.13 | 1.1 | 0.989 | 0.817 | 0.906 | 0.982 | 0.854 | 0.635 | 0.659 | 0.687 | 0.668 | 0.576 | 0.345 | 0.216 | 0.555 | 0.302 | 0.203 |
| EKVX | 1.06 | 1.11 | 1.02 | 1.21 | 0.912 | 1.25 | 0.93 | 0.849 | 0.958 | 0.878 | – | 0.383 | 0.327 | 0.297 | 0.336 | 0.85 | 0.877 | 0.975 | 0.816 | 0.804 |
| NCI-H1792 | 1.25 | 1.05 | 0.938 | 1.01 | 0.947 | 0.831 | 0.99 | 0.947 | 1.01 | 0.949 | 0.513 | 0.478 | 0.532 | 0.481 | 0.521 | 0.407 | 0.447 | 0.473 | 0.517 | 0.434 |
| PC-14 | 1.02 | 0.846 | 0.855 | 0.871 | 0.899 | 1.06 | 0.846 | 0.856 | 0.916 | 0.877 | 0.224 | 0.198 | 0.237 | 0.199 | 0.234 | – | 0.181 | 0.175 | 0.171 | 0.169 |
| NCI-H650 | 0.828 | 0.709 | 0.961 | 0.753 | 1.02 | 0.969 | 0.969 | 0.675 | 0.889 | 0.642 | 0.33 | 0.314 | 0.329 | 0.344 | 0.298 | – | 0.844 | 0.843 | 0.804 | 0.658 |
| NCI-H1650 | 0.194 | 0.195 | 0.339 | 0.187 | 0.213 | 1.03 | 1.08 | 0.896 | 0.873 | 0.478 | 0.411 | 0.388 | 0.426 | 0.447 | 0.512 | – | 0.196 | 0.198 | 0.214 | 0.197 |
| NCI-H1355 | 1.26 | 1.15 | 1.09 | 1.27 | 0.718 | 1.22 | 1.11 | 0.993 | 1.04 | 0.768 | 0.354 | 0.333 | 0.347 | 0.372 | 0.364 | 0.751 | 0.721 | 0.772 | 0.616 | 0.687 |
| HOP-62 | 0.726 | 0.389 | 0.889 | 0.838 | 0.718 | 0.955 | 0.885 | 0.754 | 1.03 | 0.902 | 0.227 | 0.22 | 0.208 | 0.22 | 0.183 | 0.879 | 0.946 | 0.934 | 0.927 | 0.686 |
| NCI-H3122 | 1 | 1.02 | 1.01 | 1.02 | 1 | 0.283 | 0.281 | 0.32 | 0.356 | 0.331 | 0.469 | 0.499 | 0.512 | 0.423 | 0.323 | 0.13 | 0.108 | 0.0859 | 0.0958 | 0.113 |
| NCI-H1437 | 0.504 | 0.523 | 0.46 | 0.592 | 0.4 | 1.1 | 0.906 | 0.864 | 1.01 | 0.823 | 0.587 | 0.533 | 0.606 | 0.554 | 0.501 | 1.16 | 1.26 | 1.2 | 1.13 | 0.908 |
| BEN | 0.872 | 0.759 | 0.992 | 1.03 | 0.712 | 0.952 | 0.847 | 0.688 | 0.835 | 0.796 | 0.684 | 0.691 | 0.648 | 0.697 | 0.782 | 0.339 | 0.64 | 0.519 | 0.377 | 0.33 |
| NCI-H520 | 0.603 | 0.697 | – | 0.57 | 0.47 | 0.967 | 0.826 | – | 0.867 | 0.503 | 0.491 | 0.445 | 0.572 | 0.459 | 0.499 | 0.211 | 0.209 | 0.236 | 0.215 | 0.241 |
| NCI-H2087 | 0.996 | 1.07 | 1.16 | 0.77 | 0.937 | 1.21 | 0.891 | 1 | 0.902 | 0.93 | 0.267 | 0.25 | 0.266 | 0.296 | 0.233 | 0.158 | 0.15 | 0.172 | 0.233 | 0.17 |
| NCI-H2347 | 1.07 | 0.881 | 0.729 | 0.876 | 0.878 | 0.723 | 0.794 | 0.684 | 0.983 | 0.713 | 0.645 | 0.603 | 0.593 | 0.646 | 0.612 | 0.519 | 0.456 | 0.41 | 0.302 | 0.676 |
| NCI-H838 | 0.912 | 0.855 | 0.485 | 1.22 | 0.652 | 0.96 | 0.721 | 0.688 | 0.875 | 0.757 | 0.464 | 0.43 | 0.502 | 0.431 | 0.609 | 0.218 | 0.233 | 0.316 | 0.239 | 0.221 |
| LXF-289 | 1.04 | 1.07 | 1.1 | 1.08 | 1.11 | 0.919 | 0.812 | 0.9 | 0.933 | 0.912 | 0.324 | 0.414 | 0.369 | 0.363 | 0.431 | 0.608 | 0.784 | 0.732 | 0.674 | 0.628 |
| LC-2-ad | 1.19 | 1.06 | 0.569 | 1.17 | 1.07 | 0.516 | 0.424 | 0.526 | 0.518 | 0.499 | 0.746 | 0.717 | 0.834 | 0.693 | 0.777 | – | 1 | 1 | 0.693 | 0.688 |
| NCI-H2085 | 1.04 | 0.929 | 0.892 | 1.12 | 0.98 | 1.02 | 0.755 | 0.824 | 0.954 | 0.755 | 0.548 | 0.461 | 0.544 | 0.56 | 0.561 | 0.418 | 0.48 | 0.486 | 0.403 | 0.352 |

— the supplement of paper PMC10307832
